Assay results from ChEMBL document CHEMBL2390876, “Synthesis and evaluation of 4,5-dihydro-5-methylisoxazolin-5-carboxamide derivatives as VLA-4 antagonists” (Bioorg Med Chem Lett, 2013).

Experiments:
[1] = in vitro; details: mouse, liver microsomes
[2] = in vitro; details: rat, liver microsomes
[3] = in vitro; details: human, liver microsomes

CC(C1=NOC(C)(C(=O)N[C@@H](Cc2ccc(NC(=O)c3c(Cl)cccc3Cl)cc2)C(=O)O)C1)c1ccccc1 (stereo partly drawn)
remaining at 0.5 h [1]: 99% | remaining at 0.5 h [2]: 84.5% | remaining at 0.5 h [3]: 95%
